Measured values as given in PMC7261188 (Nucleic Acids Research, 2020).
pKd: −log10 of the molar value.

Target: SFTSV CBD (cap-binding domain of SFTSV L protein) (Severe fever with thrombocytopenia syndrome virus, UniProt I0DF35)
Test: biochemical

Sequence of SFTSV CBD (cap-binding domain of SFTSV L protein) (I0DF35 1695-1810 limits assumed): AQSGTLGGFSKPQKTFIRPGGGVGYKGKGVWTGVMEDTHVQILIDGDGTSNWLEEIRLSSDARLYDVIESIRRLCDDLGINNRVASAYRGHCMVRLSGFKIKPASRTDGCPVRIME

C[n+]1cn([C@@H]2O[C@H](COP(=O)(O)OP(=O)(O)OP(=O)(O)O)[C@@H](O)[C@H]2O)c2nc(N)[nH]c(=O)c21 [m^7GTP]
pKd: ~3.86
